Test results from patent publication US7829528B2, “Compositions and methods for treating STAT-6 associated diseases or conditions” (The Rockefeller University, priority 2004, dated 2010).
Where no end group is shown, it is not given here.

Key:
IFN-gamma = assay: Ovalbumin-induced IFN-gamma production by splenocytes from ovalbumin-sensitized mice (ELISA); type: cell-based, BALB/c mice; conditions: ovalbumin 100 μg/mL + 100 μM peptide added daily, four days; ovalbumin alone 567.9 ± 93.1
Method: (§1) Splenocytes from ovalbumin-sensitized mice were cultured for four days with no antigen, with ovalbumin alone, or with ovalbumin plus the STAT-6-IP or a STAT-6 Tyr-641 mutant (STAT-6-CP; Tyr-Ala-Arg-Ala-Ala-Ala-Arg-Gln-Ala-Arg-Ala-Gly-Arg-Gly-Phe-Val-Ser-Thr-Thr; SEQ ID NO:8). The STAT-6-IP and STAT-6-CP were added to splenocyte cultures daily. Treatment with the STAT-6-IP, but not the STAT-6-CP, reduced the supernatant levels of both IL-4 and IL-13 (Table 3).
(§2) BALB/c mice were sensitized systemically by two weekly i.p. injections of 0.025% ovalbumin mixed with 4 mg/mL Al(OH)3. One week after the second sensitization, mice were sacrificed and spleens harvested. A single cell suspension of splenocytes (5×10^6 cells/mL) was cultured in RPMI-1640 medium containing 10% heat-inactivated fetal bovine serum and 2 mM L-glutamine, 50 μM 2-mercaptoethanol, 100 U/mL penicillin, and 100 μg/mL streptomycin sulfate. Splenocytes were cultured for four days in the presence or absence of 100 μg/mL ovalbumin, either alone or with 100 μM STAT-6-IP or STAT-6-CP, which were added daily. After four days, culture supernatants were harvested to quantify cytokine production by ELISA. […] Cytokine expression was monitored by flow cytometry and analyzed using CELLQUEST™ software (Becton Dickinson). […]

[1] = tested on: ovalbumin-sensitized mice; assay: Allergen-induced accumulation of granulocytes in bronchoalveolar lavage (BAL) fluid; type: in vivo, BALB/c mice
Text: In the combined allergic rhinitis and asthma model, non-anaesthetized mice are locally sensitized with ovalbumin intranasally (i.n.), the primary route of allergen exposure in man (McCusker, et al. (2002) supra). Normal saline was used as a control. In both models sensitized mice produce ovalbumin-specific IgE and upon i.n. ovalbumin challenge, develop inflammation and eosinophilia in both the upper and lower airways as well as IL-13-dependent airway hyperresponsiveness (McCusker, et al. (2002) supra; Wang and McCusker (2005) Clin. Exp. Allergy 35(8):1104-11). Thus, in each model of allergic airway disease, the STAT-6-IP or control STAT-6-CP was given locally, i.n., to non-anaesthetized, ovalbumin-sensitized mice prior to each of five daily allergen challenges. Consistent with its ability to inhibit STAT-6-dependent activity in vitro, the STAT-6-IP inhibited allergen-induced accumulation of granulocytes in the lung, quantified in bronchoalveolar lavage (BAL) fluid, independent of the site of sensitization (Table 5).
Six-to-eight week-old male BALB/c mice were obtained from Harlan-Sprague Dawley (Indianapolis, Ind.) and were housed in a conventional animal facility. For each experimental condition, a minimum of 6-8 animals was used. Awake animals were sensitized five days per week for each of two weeks by instillation in each nostril of 5 μL 1% ovalbumin in PBS. Alternatively, animals were sensitized by two weekly systemic, i.p. injections of 0.025% ovalbumin mixed with 4 mg/mL Al(OH)3. Following two weeks rest, animals were challenged for five days by intranasal instillation of 1% ovalbumin. […] The tail vein was cannulated for drug administration and heart rate was monitored by EKG. […] Respiratory system resistance was measured. […] Methacholine was injected through the tail vein at dose of 10, 20, 40, 80, 160, 320 μg/kg and the maximal resistance and elastance were recorded. […] Six fields were counted, each encompassing 100 cells per slide, and means obtained.

[2] = tested on: ovalbumin-sensitized mice; assay: Airway hyperresponsiveness to methacholine (respiratory system resistance, FlexiVent); type: in vivo, BALB/c mice
Method: Six-to-eight week-old male BALB/c mice were obtained from Harlan-Sprague Dawley (Indianapolis, Ind.) and were housed in a conventional animal facility. For each experimental condition, a minimum of 6-8 animals was used. Awake animals were sensitized five days per week for each of two weeks by instillation in each nostril of 5 μL 1% ovalbumin in PBS. Alternatively, animals were sensitized by two weekly systemic, i.p. injections of 0.025% ovalbumin mixed with 4 mg/mL Al(OH)3. Following two weeks rest, animals were challenged for five days by intranasal instillation of 1% ovalbumin. Animals treated with peptides received the STAT-6-IP (15, 50, or 150 μg) or STAT-6-CP (50 or 150 μg) in 10 μL PBS 30 minutes prior to each ovalbumin challenge. Twenty-four hours after the last ovalbumin challenge, mice were deeply anaesthetized with xylazine and sodium pentobarbital and paralyzed with pancuronium bromide. The tail vein was cannulated for drug administration and heart rate was monitored by EKG. The trachea was exposed, a cannula inserted and secured with silk ties and then attached to a computer-controlled small-animal ventilator (FlexiVent; SCIREQ, Montreal, Quebec). Mice were ventilated quasi-sinusoidally with a tidal volume of 8 mL/kg and respiratory rate of 150 breaths/minute. Respiratory system resistance was measured. Airway hyperresponsiveness was by low dose methacholine. Methacholine was injected through the tail vein at dose of 10, 20, 40, 80, 160, 320 μg/kg and the maximal resistance and elastance were recorded. Afterward, the trachea was isolated and a 22-gauge stainless steel catheter was inserted into the proximal trachea and secured with 4-0 silk suture. The lungs were lavaged using 0.5 mL of ice cold 0.9% NaCl. The bronchoalveolar lavage (BAL) fluid was centrifuged to remove intact cells and the supernatant stored at −20° C. for IL-13 analysis by ELISA. […] Six fields were counted, each encompassing 100 cells per slide, and means obtained.

IL-13 [3] = assay: Ovalbumin-induced IL-13 production by splenocytes from ovalbumin-sensitized mice (ELISA); type: cell-based, BALB/c mice; conditions: ovalbumin 100 μg/mL + 100 μM peptide added daily, four days; ovalbumin alone 2585.4 ± 165.7
Method: as §1, §2

[4] = tested on: ovalbumin-sensitized mice; assay: Histology of lungs; type: in vivo, BALB/c mice; conditions: compared with ovalbumin-sensitized and -challenged animals
Method: Histology was performed according to established methods (McCusker, et al. (2002) supra). Briefly, lungs were slowly inflated with 1 mL of formalin, isolated, and placed entirely in formalin. The specimens were embedded in paraffin and […] sections prepared. Slides were stained with Giemsa and examined under standard light microscopy.

IL-13 [5] = assay: IL-13 in the BAL fluid (ELISA); type: in vivo, BALB/c mice; conditions: 150 μg peptide prior to each ovalbumin challenge; ovalbumin control 84.95, normal saline 55.67
Method: Six-to-eight week-old male BALB/c mice were obtained from Harlan-Sprague Dawley (Indianapolis, Ind.) and were housed in a conventional animal facility. For each experimental condition, a minimum of 6-8 animals was used. Awake animals were sensitized five days per week for each of two weeks by instillation in each nostril of 5 μL 1% ovalbumin in PBS. Alternatively, animals were sensitized by two weekly systemic, i.p. injections of 0.025% ovalbumin mixed with 4 mg/mL Al(OH)3. Following two weeks rest, animals were challenged for five days by intranasal instillation of 1% ovalbumin. Animals treated with peptides received the STAT-6-IP (15, 50, or 150 μg) or STAT-6-CP (50 or 150 μg) in 10 μL PBS 30 minutes prior to each ovalbumin challenge. Twenty-four hours after the last ovalbumin challenge, mice were deeply anaesthetized with xylazine and sodium pentobarbital and paralyzed with pancuronium bromide. The tail vein was cannulated for drug administration and heart rate was monitored by EKG. […] Respiratory system resistance was measured. […] Methacholine was injected through the tail vein at dose of 10, 20, 40, 80, 160, 320 μg/kg and the maximal resistance and elastance were recorded. […] Six fields were counted, each encompassing 100 cells per slide, and means obtained.

YARAAARQARAGRGFVSTT [STAT-6-CP, STAT-6 Tyr-641 mutant, control peptide]
IFN-gamma (pg/mL ± SEM), culture supernatant (IFN-gamma): 513.6 ± 118.3 pg/mL
Granulocytes/100 counted from BAL (±SEM) ([1]; dose response, 150 μg peptide, ovalbumin control 22.33, normal saline 5.00): 21.42 ± 1.56 Granulocytes/100 counted
Granulocytes/100 counted from BAL (±SEM) ([1]; i.n. ovalbumin sensitization, 50 microgram peptide i.n. prior to each ovalbumin challenge, ovalbumin control 26.73): 22.27 (±0.60) Granulocytes/100 counted
Granulocytes/100 counted from BAL (±SEM) ([1]; i.p. ovalbumin sensitization, 50 microgram peptide i.n. prior to each ovalbumin challenge, ovalbumin control 37.57): 34.75 (±0.68) Granulocytes/100 counted
Response Rmax (cm H2O × s/mL ± SEM) ([2]; dose response, 150 μg peptide, ovalbumin control 2.02, normal saline 1.41): 2.53 (±0.31) cm H2O × s/mL
Response Rmax (cm H2O × s/mL ± SEM) ([2]; i.n. ovalbumin sensitization, 50 microgram peptide, ovalbumin control 1.92, normal saline 1.19): 1.80 ± 0.07 cm H2O × s/mL
Response Rmax (cm H2O × s/mL ± SEM) ([2]; i.p. ovalbumin sensitization, 50 microgram peptide, ovalbumin control 1.87, normal saline 1.19): 1.85 ± 0.06 cm H2O × s/mL
IL-13 (pg/mL ± SEM), culture supernatant (IL-13 [3]): 2136.2 ± 94.7 pg/mL
Ovalbumin-induced lung inflammation, including airway eosinophilia (histology) [4]: did not differ
IL-13, pg/mL (±SEM), BAL fluid (IL-13 [5]): 75.75 (±5.60) pg/mL
